Results reported in article PMC4741952, “Small molecule RL71 targets SERCA2 at a novel site in the treatment of human colorectal cancer” (Oncotarget, 2015).

Target: T1, SERCA2 (Homo sapiens, UniProt P16615)
T1 construct: gene ATP2A2; endogenous SERCA2 in SW480 whole-cell lysates
Experiment: competition by […] free RL71 of the RL71-biotin streptavidin pull-down (LC/MS, anti-SERCA2 western blot); Ca2+-ATPase inhibition in treated SW480 cells
Type: cell-based

T1 sequence (P16615 whole entry): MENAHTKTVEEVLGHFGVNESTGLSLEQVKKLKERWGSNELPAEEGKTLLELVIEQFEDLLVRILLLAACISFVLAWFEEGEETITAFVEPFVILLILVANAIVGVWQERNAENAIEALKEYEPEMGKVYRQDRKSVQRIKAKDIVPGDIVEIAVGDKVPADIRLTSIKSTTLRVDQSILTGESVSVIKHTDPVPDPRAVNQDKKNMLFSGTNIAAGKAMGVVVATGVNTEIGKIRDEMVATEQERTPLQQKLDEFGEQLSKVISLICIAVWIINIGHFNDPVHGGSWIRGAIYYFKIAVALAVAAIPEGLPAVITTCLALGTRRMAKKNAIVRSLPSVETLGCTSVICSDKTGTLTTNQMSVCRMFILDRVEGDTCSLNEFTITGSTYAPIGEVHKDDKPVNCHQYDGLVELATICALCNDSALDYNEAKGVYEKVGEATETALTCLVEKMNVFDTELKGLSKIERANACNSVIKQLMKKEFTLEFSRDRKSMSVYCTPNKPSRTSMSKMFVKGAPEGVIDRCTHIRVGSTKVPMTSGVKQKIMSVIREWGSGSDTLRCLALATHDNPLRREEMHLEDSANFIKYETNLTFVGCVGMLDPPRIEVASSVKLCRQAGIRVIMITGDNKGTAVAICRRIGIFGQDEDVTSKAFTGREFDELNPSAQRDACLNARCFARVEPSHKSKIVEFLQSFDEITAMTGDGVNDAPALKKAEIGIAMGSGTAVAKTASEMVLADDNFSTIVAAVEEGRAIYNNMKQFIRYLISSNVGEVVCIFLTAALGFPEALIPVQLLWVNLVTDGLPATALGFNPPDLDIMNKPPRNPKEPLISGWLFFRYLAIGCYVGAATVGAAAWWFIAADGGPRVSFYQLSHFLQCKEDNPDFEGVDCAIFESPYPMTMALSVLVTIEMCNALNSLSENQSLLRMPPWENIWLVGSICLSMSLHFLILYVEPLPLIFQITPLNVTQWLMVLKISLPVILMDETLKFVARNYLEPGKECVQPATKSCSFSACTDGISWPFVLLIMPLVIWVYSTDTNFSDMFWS

## COc1cc(C=C2CN(C)CC(=Cc3cc(OC)c(OC)c(OC)c3)C2=O)cc(OC)c1OC [compound 1, 3,5-bis(3,4,5-trimethoxybenzylidene)-1-methylpiperidine-4-one]
  competition by 200 μM free RL71 of the RL71-biotin streptavidin pull-down (LC/MS): The interaction between RL71-biotin and SERCA2 could be competed by RL71.
